Values of other authors as cited in patent US20040241252A1, “Pharmaceutical compositions for oral administration comprising lithium carbonate, processes of making the same, and methods of administering the same” (priority 2003, published 2004).

| time to complete absorption (oral, gastrointestinal tract) | fraction of a single dose eliminated in the urine (single dose) | Compound | mean absorption half-time (single liquefied dose, volunteers) |
| --- | --- | --- | --- |
| about 8 hours | Ninety-five | [Li+] [Li^+, lithium ion] |  |
|  |  | [Cl-].[Li+] [lithium chloride] | 0.15 h |
